Results as given in patent US20240207202A1, “COMBINATION THERAPIES TARGETING MITOCHONDRIAL BIOGENESIS FOR CANCER THERAPY” (The Wistar Institute of Anatomy and Biology, priority 2015, published 2024).

Columns and labels:
[1] = test system: WM9 melanoma cells; assay: Induction of apoptosis and cell death by PSVue 643 staining in WM9 melanoma cells; type: cell-based, human; details: WM9, 72 h
Protocol: Adherent melanoma cells were harvested with 0.05% Trypsin-EDTA and were washed once with 1×DPBS. Cells were labeled with CellTrace™ Violet according to the manufacturer's protocol and were allowed to adhere to tissue culture plates overnight following the drug treatment. […] Cells were then immediately subjected to FACS analysis using a BD LSR II flow cytometer and at least 5,000 cells per sample were acquired.
Cell suspensions were kept in the dark at room temperature for 5 min. 0.2 ml 1×PBS supplemented with 10% FBS was added to each cell suspension and cells were immediately analyzed by BD LSRII.
Briefly, autophagic flux was assessed by FACS analysis of WM9 cells expressing the mCherry-eGFPLC3B construct that were transfected with the indicated siRNAs targeting autophagy and ER stress response and treated for 72 h with DMSO or the combination of PLX4720 at 10 μM and PD0325901 at 1 μM. The data represent the average of 2 biological replicates. […] Autophagic flux was assessed by FACS analysis of WM9 cells expressing the mCherry-eGFPLC3B construct treated for 72 h with Gamitrinib at 1 μM or Spautin-1 at 10 μM in combination with PLX4720 at 10 μM/PD0325901 at 1 μM. Cells treated with DMSO were used as the control for setting up the gate.

[2] = test system: mitochondrial respiration; assay: Real-time oxygen consumption rates (Seahorse XF 24) in WM9 cells; type: cell-based, human; details: WM9, 72 h, Gamitrinib 1 μM added to PLX4720 10 μM and PD0325901 1 μM
Protocol: FIGS. 5A-5I. Gamitrinib, An Inhibitor of Mitochondrial Hsp90-directed Protein Folding, Suppresses Mitochondrial Biogenesis and Bioenergetics (A) Induction of apoptosis and cell death by PSVue 643 staining in WM9 melanoma cells treated for 72 h with the combination of Gamitrinib (Gami), Rapamycin, Phenformin (Phen), BEZ235 or 2,4-DNP at titrated doses and PLX4720 at 10 μM, PD0325901 at 1 μM and Gamitrinib at 2.5 μM. Cells treated with DMSO were used as the control. The data represent the average of 2 biological replicates. (B) Relative cell viability assessed by CellTiter Glo in WM9 cells treated for 72 h with DMSO, PLX4720 at 10 μM or the combination of PLX4720 at 10 μM and PD0325901 at 1 μM together with Gamitrinib at titrated doses. (C) Immunoblotting of proteins related to OxPhos, glycolysis, autophagy and the MAPK pathway in WM9 cells treated with PLX4720 at 10 μM and Gamitrinib as single inhibitors or in combination during a time course of 72 h. Cells treated with DMSO are used as the control. (D) Real-time oxygen consumption in WM9 cells subjected to the metabolic stress test with Seahorse XF 24 Analyzer. […] (H) Relative gene expression of 7 representative glycolysis genes assessed by qRT-PCR in WM9 cells treated for 48 h with DMSO or the combination of PLX4720 at 10 μM and PD0325901 at 1 μM with or without the addition of Gamitrinib at 2.5 μM. […]

## Gamitrinib
[1]; Gamitrinib 1 or 2.5 μM vs 0 or 0.5 μM, with PLX4720 10 μM and PD0325901 1 μM
  induction of apoptosis and cell death: more remarkable induction of apoptosis and cell death
[1]; titrated doses combined with MAPK pathway inhibitors (PLX4720 10 μM, PD0325901 1 μM)
  apoptosis and cell death, compared with other inhibitors of the drug screen: greater increase in apoptosis and cell death
[2]
  oxygen consumption rates (basal respiration, proton leak, ATP production, maximal respiration, spare respiratory capacity): significantly inhibited all key parameters of OCR
